The results in this text go back to patent publication US20260242440A1, “NOVEL MEANS TO MODULATE NMDA RECEPTOR-MEDIATED TOXICITY” (FUNDAMENTAL PHARMA GMBH, priority 2018, published 2026).

Entries after “also recorded” stand apart in the source; their conditions may differ.

Test [1] deals with synaptic NMDA receptor. Nature of the test: Gabazine induced calcium influx into mitochondria (synaptic NMDA receptor signalling). In kind it is cell-based, mouse. The note with it: primary cultured neurons, polypeptides expressed via rAAV. As for the experimental part:
Gabazine induced mitochondrial Ca^2+ response in primary cultured neurons is recorded and analysed as described in a previous study (Qiu et al, Nat Commun. 2013; 4:2034, incorporated herewith by reference) using a FRET calcium indicator 4mtD3cpv that specifically located to mitochondria. Briefly, mitochondrial Ca^2+ levels were detected with FRET-based and mitochondrial targeted Ca^2+ indicator 4mtD3cpv. 4mtD3cpv were excited at 430±12 nm (CFP) and 500±10 nm (YFP), and emission of CFP (470±12 nm) and YFP (535±15 nm) were separated and filtered using a DualView beam splitter (AHF Analysentechnik and MAG Biosystems), and all fluorescence images were recorded through a 20× water-immersion objective at 1 Hz.
In a further experiment the inventors assessed the impact of the polypeptide comprising the sequence of SEQ ID NO:5 and SEQ ID NO: 54, respectively, on Gabazine induced calcium influx (mitochondria), a measure of synaptic NMDA receptor signalling. The experiment was carried out in primary cultured neurons as described above.

Test [2] concerns HEK293 cells. Briefly: Luminescent cytotoxicity assay, HEK293 cells transfected with GRIN1 and GRIN2A or GRIN2B. It counts as cell-based, human. The following applies: compound added 6 h after transfection; cell death 48 h after transfection. As for the experimental part:
HEK293 cells were cultured in Dulbecco's Modified Eagle Medium (DMEM, Gibco™ 41965-039) supplement with 10% Fetal Bovine Serum (FBS, Gibco™, 10270), 1% Sodium Pyruvate (Gibco™, 11360070), 1% MEM NEAA (GibcoT^M, 11140035) and 0.5% Penicillin-Streptomycin (P-S; Sigma, P0781) and Passagel5-25 were used for experiments.
To test the cytotoxicity of compounds according to the present invention, HEK293 cells (70-80% confluent) were transfected 24 hours after plating with both GRIN1 and GRIN2 Å or GRIN2B, respectively (1:[…]) with Lipofectamine 2000 according to manufacturer's instructions. The relative number of dead cells in the population at the indicated time points after transfection was measured with the CytoTox-Glo™ Cytotoxicity assay (Promega, G9290) according to manufacturer's instruction with minor modification. Briefly, 10% of total medium were mixed with 10 μL AAF-amino luciferin to reach a final volume at 200 μL with water, the dead cell relative luminescence units (DRLU) was measured by GloMax (Promega) in a 96 well white bottom polystyrene microplate (Corning Costar®, 3912). After all the measurements, lysis reagents have been added to the cells and 10% of lysate was used for the total cell relative luminescence units (TRLU) measurement. Cell death was calculated by the following equations: […]
For drug testing, P4, P8, P9, P13 and P15 were added to the medium at indicated concentration 6 h after transfection. DRLU, TRLU and cell death were measured and calculated 48 h after transfection.

In test [3] the test system is primary mouse hippocampal neurons. Nature of the test: NMDA induced cell death (excitotoxicity) in cultured primary neurons. The note with it: 30 min pre-treatment with 10 μM compound; NMDA 20 μM for 10 min or 24 hours; cell death 24 hours after challenge. It counts as cell-based.
Test [4] has as its target T1, TRPM4 channel (Homo sapiens, UniProt Q8TD43).
T1 construct: PC3 cells are known to express TRPM4 channels; endogenous in cells; host or cells: PC3 prostate cancer cell line
Briefly: TRPM4 channel function, whole-cell patch clamp in PC3 cells. In kind it is cell-based. The following applies: 10 μM compound, pre-incubated 30-60 min. The text has this: To assess any direct impact of compound P4 and compound P15 on TRPM4 channel function independent of NMDA receptors, the inventors used the prostate cancer cell line PC3 and patch clamp recordings. PC3 cells are known to express TRPM4 channels (C. Holzmann et al., Oncotarget. 6, 41783-93 (2015)). TRPM4 currents in turn are characterized by their calcium dependence and outward rectification (P. Launay et al., Cell. 109, 397-407 (2002)). Briefly, whole-cell patch clamp recordings were made from PC3 cells plated on 12 mm round coverslips secured with a platinum ring in a recording chamber (OAC-1, Science Products GmbH) mounted on a fixed-stage upright microscope (BX51WI, Olympus). […] Patch electrodes (3-4 MΩ) were made from 1.5 mm borosilicate glass and filled with cesium-based solutions (in mM: CsCl, 145; NaCl, 8; HEPES, 10; MgCl2, 1; plus either EGTA, 0.2 for a free Ca^2+ concentration of zero; or EGTA, 10 and CaCl2), 9.4 for a calculated free Ca^2+ concentration of 10 μM; Maxchelator, Stanford University). Recordings were made with a Multiclamp 700B amplifier, digitized through a Digidata 1550B and acquired and analyzed using pClamp 10 software (Molecular Devices). Access resistance (range: 10-20 MΩ) was monitored regularly during voltage clamp recordings and data was rejected if changes greater than 20% occurred.

Test [5] concerns NMDA receptor. Briefly: NMDA-induced calcium transients (Fura2 calcium imaging). In kind it is cell-based, mouse. The note with it: hippocampal neurons, 6 min NMDA (20 μM) application. As for the experimental part:
In a further experiment, the impact of P4 and P15 on NMDA-induced calcium transients was assessed. Briefly, for calcium imaging, primary hippocampal neurons on coverslips were loaded with the cell-permeable, high-affinity ratiometric calcium indicator Fura2-AM (Invitrogen™ F1221), at 1 μM in CO2-independent culture medium (CICM; CICM contains: 10 mM HEPES, 140 mM NaCl, 2.5 mM KCl, 1.0 mM MgCl2, 2.0 mM CaCl2, 1.0 mM Glycine, 35.6 mM Glucose and 0.5 mM Na-pyruvate) for 30 min at 37° C., then washed and left in CICM for another 30 min to allow for de-esterification. Fura2 was excited at 340/11 nm and 380/11 nm, and fluorescence emission was obtained from a 40× UV compatible objective (LUMPLFLN, Olympus) through a 510/20 nm emission filter. For quantification, ImageJ was used to calculate average background-subtracted fluorescence intensities for 340 and 380 nm excitation (F340 and F380) from each neuron. Intracellular calcium levels were plotted as F340/F380 ratios over time, from which the NMDA response amplitude and area under the curve (AUC) was calculated to quantify NMDA-induced calcium influx.

T1 sequence (Q8TD43 whole entry): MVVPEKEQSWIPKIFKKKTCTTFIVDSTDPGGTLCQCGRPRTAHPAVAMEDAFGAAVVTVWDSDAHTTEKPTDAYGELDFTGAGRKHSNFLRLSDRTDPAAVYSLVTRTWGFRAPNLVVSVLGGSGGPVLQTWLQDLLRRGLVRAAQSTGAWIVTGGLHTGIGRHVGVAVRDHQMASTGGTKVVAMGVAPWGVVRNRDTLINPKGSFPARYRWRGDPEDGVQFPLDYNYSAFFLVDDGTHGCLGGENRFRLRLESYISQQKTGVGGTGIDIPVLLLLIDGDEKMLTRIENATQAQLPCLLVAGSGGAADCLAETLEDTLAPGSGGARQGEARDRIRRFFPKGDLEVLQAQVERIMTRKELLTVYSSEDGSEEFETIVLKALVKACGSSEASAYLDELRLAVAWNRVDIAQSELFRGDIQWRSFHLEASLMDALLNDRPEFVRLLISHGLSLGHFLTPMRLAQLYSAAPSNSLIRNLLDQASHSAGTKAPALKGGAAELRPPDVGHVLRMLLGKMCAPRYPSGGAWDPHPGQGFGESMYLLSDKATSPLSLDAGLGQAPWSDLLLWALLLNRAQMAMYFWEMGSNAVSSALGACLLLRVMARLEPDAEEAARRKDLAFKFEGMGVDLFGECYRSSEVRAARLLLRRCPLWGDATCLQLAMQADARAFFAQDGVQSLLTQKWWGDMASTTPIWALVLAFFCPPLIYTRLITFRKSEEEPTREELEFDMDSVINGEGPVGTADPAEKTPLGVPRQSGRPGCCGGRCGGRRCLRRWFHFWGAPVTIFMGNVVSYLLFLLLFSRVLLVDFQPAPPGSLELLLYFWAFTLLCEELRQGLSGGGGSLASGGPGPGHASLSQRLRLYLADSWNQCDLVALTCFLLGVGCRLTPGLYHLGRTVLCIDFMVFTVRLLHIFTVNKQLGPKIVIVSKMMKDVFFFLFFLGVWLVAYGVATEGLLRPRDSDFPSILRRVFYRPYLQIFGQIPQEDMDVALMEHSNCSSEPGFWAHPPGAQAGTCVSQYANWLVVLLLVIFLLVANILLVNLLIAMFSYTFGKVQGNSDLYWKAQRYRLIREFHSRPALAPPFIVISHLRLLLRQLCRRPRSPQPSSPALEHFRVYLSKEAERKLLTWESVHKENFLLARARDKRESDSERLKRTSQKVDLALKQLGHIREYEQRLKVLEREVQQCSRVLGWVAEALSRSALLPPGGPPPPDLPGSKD

As to “SEQ ID NO:5: polypeptide, amino acid residues 633-689 of mouse TRPM4 (NSEERAARLLLRRCPLWGEATCLQLAMQADARAFFAQDGVQSLLTQKWWGEMDSTTP; listed as Mus musculus)”, the “Gabazine induced calcium influx into mitochondria” value in test [1] is recorded as “neither of these polypeptides affects synaptic NMDA receptor signalling; also recorded: not affected”.

In the case of `CCN(CCN)Cc1cccc(Br)c1` [P4], the “NMDA receptor induced cell death” value in test [2] is on record as “reduced the level of NMDA receptor induced cell death”. The “NMDA receptor induced cell death (transient and chronic NMDA toxicity)” value in test [3] is “neuroprotective effect”. In addition, the “TRPM4-like outwardly rectifying current activated by 10 μM Ca2+” value in test [4] was “not affected”. In addition, the NMDA-induced calcium transients entry in test [5] is “neither compound P4 nor compound P15 reduced; also recorded: neither compound P4 nor P15 reduced”.
